Source: patent publication US6352836B1 (priority 1997, dated 2002)
Read-outs that look alike come from different tables or passages of the source.

Molecular target: PHIS-PDiTPx2235 (Dirofilaria immitis, UniProt O17433)
Format: biochemical, D. immitis
Conditions: for Percent protection (Mean ± SD): PHIS-PDiTPx2235 0.75 mg/ml, DTT 10 mM

PHIS-PDiTPx2235, sequence (O17433 whole entry, looked up): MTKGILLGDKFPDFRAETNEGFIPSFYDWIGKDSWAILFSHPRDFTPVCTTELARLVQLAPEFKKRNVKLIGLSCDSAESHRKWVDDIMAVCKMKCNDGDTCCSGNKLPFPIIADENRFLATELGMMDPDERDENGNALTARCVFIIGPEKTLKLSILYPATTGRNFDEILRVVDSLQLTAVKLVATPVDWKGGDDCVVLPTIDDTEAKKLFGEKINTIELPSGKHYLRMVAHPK

Structure (SMILES): CCN1C(=O)C=CC1=O [NEM, N-ethylmaleimide]
- Percent protection (Mean ± SD) (NEM 0.1 mM): 97.3 ± 2.40%
- Percent protection (Mean ± SD) (NEM 1.0 mM): 76.7 ± 1.13%
- Percent protection (Mean ± SD) (NEM 2.0 mM): 77.9 ± 1.87%
- Percent protection (Mean ± SD) (NEM 4.0 mM): 58.4 ± 1.57%
- Percent protection (Mean ± SD) (NEM 8.0 mM): 21.1 ± 0.33%
- Percent protection (Mean ± SD) (NEM 16.0 mM): 0.0 ± 0.0%
- Percent protection (Mean ± SD) (NEM 32.0 mM): 0.0 ± 0.0%
- inhibition of H2O2 removal by PHIS-PDiTPx2235 (inhibition concentration dependent (Table 5)): prevented PHIS-PDiTPx2235 from removing H2O2
